Assay results published in patent US12203124B2, “Methods for improved rapid antimicrobial susceptibility testing” (priority 2016, dated 2025).
Converted amounts (≈) assume the structure as drawn. Where two headings read alike, the source gives them in different places.

Assays:
[1] = test system: E. coli strains; experiment: CLSI overnight reference method, broth microdilution MIC; format: cell-based; details: for MIC (CLSI Ref): unit assumed
[2] = test system: P. aeruginosa; experiment: Rapid AST by surface binding of europium probe, time resolved fluorescence; format: cell-based; details: Pseudomonas aeruginosa
Procedure: The x-axis of each graph denotes the concentrations of antimicrobial Amikacin (AMK) in micrograms/milliliter, and the y-axis denotes fluorescence from binding to bacteria surface. Growth check data measured by optical density (Absorbance at 600 nm) of the bacterial culture is denoted for each strain.
AST was performed by surface binding of probe followed by time resolved fluorescence. The P. aeruginosa strains were incubated at 35° C. in shaking conditions for 4 hours for attaining growth, and growth check was performed by measuring absorbance of the culture at 600 nm after 4 hours of growth.

[3] = E. coli strain Clinical Sample 1
[4] = E. coli strain Clinical Sample 2
[5] = E. coli strain Clinical Sample 4
[6] = E. coli strain Clinical Sample 5
[7] = E. coli strain Clinical Sample 6
[8] = E. coli strain Clinical Sample 7
[9] = E. coli strain Clinical Sample 8
[10] = E. coli strain Clinical Sample 9
[11] = E. coli strain Clinical Sample 10
[12] = E. coli strain Clinical Sample 11
[13] = E. coli strain Clinical Sample 12
[14] = E. coli strain Clinical Sample 13

Row | Compound | MIC (CLSI Ref) ([1]; E. coli strain BEI 4.097) | MIC (CLSI Ref) ([1]; E. coli strain CDC Carba36) | MIC (CLSI Ref) [1, 3] | MIC (CLSI Ref) [1, 4] | MIC (CLSI Ref) [1, 5] | MIC (CLSI Ref) [1, 6] | MIC (CLSI Ref) [1, 7] | MIC (CLSI Ref) [1, 8] | MIC (CLSI Ref) [1, 9] | MIC (CLSI Ref) [1, 10] | MIC (CLSI Ref) [1, 11] | MIC (CLSI Ref) [1, 12] | MIC (CLSI Ref) [1, 13] | MIC (CLSI Ref) [1, 14] | Interpretation letter [1, 4] | MIC ([2]; P. aeruginosa Strain 1, growth check value 2.18, 4 hours at 35° C., read-out: MIC) | MIC ([2]; P. aeruginosa Strain 2, no reliable MIC at growth checkpoint value 1.13, read-out: expected MIC)
1 | C[C@H]1[C@H](NC(=O)/C(=N\OC(C)(C)C(=O)O)c2csc(N)n2)C(=O)N1S(=O)(=O)O [ATM, Aztreonam] | < 0.25 µg/mL | 8 µg/mL (≈ 18.4 µM) | < 0.25 µg/mL | 0.5 µg/mL (≈ 1.15 µM) | < 0.25 µg/mL | < 0.25 µg/mL | < 0.25 µg/mL | < 0.25 µg/mL | 64 µg/mL (≈ 147 µM) | 32 µg/mL (≈ 73.5 µM) | < 0.25 µg/mL | < 0.25 µg/mL | < 0.25 µg/mL | < 0.25 µg/mL | – | – | –
2 | Trimethoprim-Sulfamethoxazole [SXT] | < 0.5 µg/mL | < 0.5 µg/mL | < 0.5 µg/mL | 4 µg/mL | > 32 µg/mL | > 32 µg/mL | 2 µg/mL | > 32 µg/mL | < 0.5 µg/mL | > 32 µg/mL | > 32 µg/mL | < 0.5 µg/mL | < 0.5 µg/mL | < 0.5 µg/mL | R | – | –
3 | NCC[C@H](O)C(=O)N[C@@H]1C[C@H](N)[C@@H](O[C@H]2O[C@H](CN)[C@@H](O)[C@H](O)[C@H]2O)[C@H](O)[C@H]1O[C@H]1O[C@H](CO)[C@@H](O)[C@H](N)[C@H]1O [AMK, Amikacin] | 4 µg/mL (≈ 6.83 µM) | 4 µg/mL (≈ 6.83 µM) | 4 µg/mL (≈ 6.83 µM) | 4 µg/mL (≈ 6.83 µM) | 4 µg/mL (≈ 6.83 µM) | 4 µg/mL (≈ 6.83 µM) | 4 µg/mL (≈ 6.83 µM) | 2 µg/mL (≈ 3.42 µM) | 4 µg/mL (≈ 6.83 µM) | 4 µg/mL (≈ 6.83 µM) | 8 µg/mL (≈ 13.7 µM) | 4 µg/mL (≈ 6.83 µM) | 4 µg/mL (≈ 6.83 µM) | 4 µg/mL (≈ 6.83 µM) | – | 8 µg/mL (≈ 13.7 µM) | 8 µg/mL (≈ 13.7 µM)
4 | Imipenem/Cilastatin [IPM] | < 0.12 µg/mL | < 0.12 µg/mL | < 0.12 µg/mL | < 0.12 µg/mL | 0.25 µg/mL | < 0.12 µg/mL | < 0.12 µg/mL | < 0.12 µg/mL | 0.5 µg/mL | < 0.12 µg/mL | < 0.12 µg/mL | 0.25 µg/mL | < 0.12 µg/mL | < 0.12 µg/mL | – | – | –
5 | C[C@H]1COc2c(N3CCN(C)CC3)c(F)cc3c(=O)c(C(=O)O)cn1c23 [LVX, Levofloxacin] | < 0.06 µg/mL | > 8 µg/mL | < 0.06 µg/mL | < 0.06 µg/mL | > 8 µg/mL | > 8 µg/mL | < 0.06 µg/mL | < 0.06 µg/mL | < 0.06 µg/mL | > 8 µg/mL | 8 µg/mL (≈ 22.1 µM) | < 0.06 µg/mL | 0.5 µg/mL (≈ 1.38 µM) | < 0.06 µg/mL | – | – | –
6 | CN(C)[C@@H]1C(=O)C(C(N)=O)=C(O)[C@@]2(O)C(=O)C3=C(O)c4c(O)cccc4[C@@](C)(O)[C@H]3C[C@@H]12 [TET, Tetracycline] | 32 µg/mL (≈ 72 µM) | 8 µg/mL (≈ 18 µM) | 4 µg/mL (≈ 9 µM) | > 32 µg/mL | 4 µg/mL (≈ 9 µM) | > 32 µg/mL | 2 µg/mL (≈ 4.5 µM) | 4 µg/mL (≈ 9 µM) | 8 µg/mL (≈ 18 µM) | 4 µg/mL (≈ 9 µM) | 4 µg/mL (≈ 9 µM) | 4 µg/mL (≈ 9 µM) | 4 µg/mL (≈ 9 µM) | 4 µg/mL (≈ 9 µM) | R | – | –
7 | NC[C@H]1O[C@H](O[C@H]2[C@H](O)[C@@H](O[C@H]3O[C@H](CO)[C@@H](O)[C@H](N)[C@H]3O)[C@H](N)C[C@@H]2N)[C@H](N)C[C@@H]1O [TOB, Tobramycin] | 1 µg/mL (≈ 2.14 µM) | 1 µg/mL (≈ 2.14 µM) | 2 µg/mL (≈ 4.28 µM) | 1 µg/mL (≈ 2.14 µM) | 1 µg/mL (≈ 2.14 µM) | 1 µg/mL (≈ 2.14 µM) | 1 µg/mL (≈ 2.14 µM) | 1 µg/mL (≈ 2.14 µM) | 2 µg/mL (≈ 4.28 µM) | 4 µg/mL (≈ 8.56 µM) | 16 µg/mL (≈ 34.2 µM) | 1 µg/mL (≈ 2.14 µM) | 1 µg/mL (≈ 2.14 µM) | 1 µg/mL (≈ 2.14 µM) | – | – | –
8 | Gentamycin | 0.5 µg/mL | 2 µg/mL | 0.5 µg/mL | 4 µg/mL | 0.5 µg/mL | 2 µg/mL | 0.5 µg/mL | 0.5 µg/mL | 1 µg/mL | 1 µg/mL | > 16 µg/mL | 2 µg/mL | 1 µg/mL | 1 µg/mL | – | – | –
9 | Colistin [CST] | 0.12 µg/mL | 0.25 µg/mL | 0.12 µg/mL | 0.12 µg/mL | 0.25 µg/mL | 0.25 µg/mL | 0.12 µg/mL | 0.12 µg/mL | 0.12 µg/mL | 0.5 µg/mL | 0.25 µg/mL | 0.5 µg/mL | 0.25 µg/mL | 0.25 µg/mL | – | – | –
10 | CO/N=C(\C(=O)N[C@@H]1C(=O)N2C(C(=O)O)=C(CSc3nc(=O)c(=O)[nH]n3C)CS[C@H]12)c1csc(N)n1 [CRO, Ceftriaxone] | < 0.12 µg/mL | 1 µg/mL (≈ 1.8 µM) | < 0.12 µg/mL | 2 µg/mL (≈ 3.61 µM) | < 0.12 µg/mL | < 0.12 µg/mL | < 0.12 µg/mL | < 0.12 µg/mL | 64 µg/mL (≈ 115 µM) | > 64 µg/mL | < 0.12 µg/mL | < 0.12 µg/mL | < 0.12 µg/mL | < 0.12 µg/mL | I | – | –
11 | Ampicillin/sulbactam [SAM] | 8 µg/mL | > 32 µg/mL | 4 µg/mL | 16 µg/mL | 16 µg/mL | 8 µg/mL | 2 µg/mL | 16 µg/mL | 64 µg/mL | 32 µg/mL | 16 µg/mL | 4 µg/mL | 2 µg/mL | > 32 µg/mL | I | – | –
12 | C[C@@H](O)[C@H]1C(=O)N2C(C(=O)O)=C(S[C@@H]3CN[C@H](C(=O)N(C)C)C3)[C@H](C)[C@H]12 [MEM, Meropenem] | < 0.06 µg/mL | < 0.06 µg/mL | < 0.06 µg/mL | < 0.06 µg/mL | < 0.06 µg/mL | < 0.06 µg/mL | < 0.06 µg/mL | < 0.06 µg/mL | < 0.06 µg/mL | < 0.06 µg/mL | < 0.06 µg/mL | < 0.06 µg/mL | < 0.06 µg/mL | < 0.06 µg/mL | – | – | –
13 | CC(C)(O/N=C(\C(=O)N[C@@H]1C(=O)N2C(C(=O)[O-])=C(C[n+]3ccccc3)CS[C@H]12)c1csc(N)n1)C(=O)O [CAZ, Ceftazidime] | 0.25 µg/mL (≈ 0.457 µM) | 4 µg/mL (≈ 7.32 µM) | 0.25 µg/mL (≈ 0.457 µM) | 2 µg/mL (≈ 3.66 µM) | 0.25 µg/mL (≈ 0.457 µM) | 0.25 µg/mL (≈ 0.457 µM) | 0.12 µg/mL (≈ 0.22 µM) | 0.25 µg/mL (≈ 0.457 µM) | > 32 µg/mL | > 32 µg/mL | 0.12 µg/mL (≈ 0.22 µM) | 0.25 µg/mL (≈ 0.457 µM) | 0.12 µg/mL (≈ 0.22 µM) | 0.12 µg/mL (≈ 0.22 µM) | – | – | –
14 | Penicillin | 16 µg/mL | > 16 µg/mL | > 16 µg/mL | > 16 µg/mL | > 16 µg/mL | > 16 µg/mL | 16 µg/mL | > 16 µg/mL | > 16 µg/mL | > 16 µg/mL | > 16 µg/mL | > 16 µg/mL | > 16 µg/mL | 16 µg/mL | – | – | –
15 | C[C@@H](O)[C@H]1C(=O)N2C(C(=O)O)=C(S[C@@H]3CN[C@H](C(=O)Nc4cccc(C(=O)O)c4)C3)[C@H](C)[C@H]12 [ERT, Ertapenem] | 0.008 µg/mL (≈ 0.0168 µM) | 0.12 µg/mL (≈ 0.252 µM) | 0.008 µg/mL (≈ 0.0168 µM) | 0.015 µg/mL (≈ 0.0315 µM) | 0.008 µg/mL (≈ 0.0168 µM) | 0.008 µg/mL (≈ 0.0168 µM) | 0.008 µg/mL (≈ 0.0168 µM) | 0.008 µg/mL (≈ 0.0168 µM) | 0.25 µg/mL (≈ 0.526 µM) | 0.12 µg/mL (≈ 0.252 µM) | 0.008 µg/mL (≈ 0.0168 µM) | 0.008 µg/mL (≈ 0.0168 µM) | 0.008 µg/mL (≈ 0.0168 µM) | 0.016 µg/mL (≈ 0.0336 µM) | – | – | –
16 | CC1(C)S[C@@H]2[C@H](NC(=O)[C@H](N)c3ccccc3)C(=O)N2[C@H]1C(=O)O [AMP, Ampicillin] | 4 µg/mL (≈ 11.4 µM) | > 32 µg/mL | 4 µg/mL (≈ 11.4 µM) | > 32 µg/mL | > 32 µg/mL | > 32 µg/mL | 4 µg/mL (≈ 11.4 µM) | > 32 µg/mL | > 32 µg/mL | > 32 µg/mL | > 32 µg/mL | 4 µg/mL (≈ 11.4 µM) | 4 µg/mL (≈ 11.4 µM) | > 32 µg/mL | – | – | –
17 | Piperacillin/tazobactam [TZP] | 4 µg/mL | 128 µg/mL | 4 µg/mL | 8 µg/mL | 4 µg/mL | 4 µg/mL | 2 µg/mL | 4 µg/mL | 32 µg/mL | > 128 µg/mL | 2 µg/mL | 2 µg/mL | 2 µg/mL | 32 µg/mL | – | – | –
